Results published in PubChem BioAssay (NCI).
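In this assay, cells in 96-well plates receive the compound at five concentrations for 48 hours. Endpoints are linearly interpolated between the surrounding concentrations. The concentration for 50% growth inhibition is given as GI50. TGI is the concentration that stops growth completely.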

Assays:
Assay in all cases: inhibition of tumour cell growth, NCI panel, 48 h
M14 melanoma = system: M14 melanoma
TK-10 renal = system: TK-10 renal
ACHN renal = system: ACHN renal
EKVX NSCLC = system: EKVX NSCLC
T-47D breast = system: T-47D breast
SR leukemia = system: SR leukemia
SN12C renal = system: SN12C renal
KM12 colon = system: KM12 colon
NCI-H226 lung = system: NCI-H226 lung
SNB-19 CNS = system: SNB-19 CNS
NCI/ADR-RES ovarian = system: NCI/ADR-RES ovarian
HS 578T breast = system: HS 578T breast
SK-OV-3 ovarian = system: SK-OV-3 ovarian
NCI-H522 lung = system: NCI-H522 lung
HCT-116 colon = system: HCT-116 colon
BT-549 breast = system: BT-549 breast
OVCAR-8 ovarian = system: OVCAR-8 ovarian
UACC-257 melanoma = system: UACC-257 melanoma
SNB-75 CNS = system: SNB-75 CNS
MOLT-4 leukemia = system: MOLT-4 leukemia
IGROV1 ovarian = system: IGROV1 ovarian
LOX IMVI melanoma = system: LOX IMVI melanoma
SK-MEL-28 melanoma = system: SK-MEL-28 melanoma
MALME-3M melanoma = system: MALME-3M melanoma
MCF7 breast = system: MCF7 breast
UO-31 renal = system: UO-31 renal
HT29 colon = system: HT29 colon
CAKI-1 renal = system: CAKI-1 renal
A498 renal = system: A498 renal
HCC-2998 colon = system: HCC-2998 colon
HCT-15 colon = system: HCT-15 colon
786-0 renal = system: 786-0 renal
NCI-H23 lung = system: NCI-H23 lung
UACC-62 melanoma = system: UACC-62 melanoma
SF-295 CNS = system: SF-295 CNS
SW-620 colon = system: SW-620 colon
MDA-MB-231 breast = system: MDA-MB-231 breast
SK-MEL-5 melanoma = system: SK-MEL-5 melanoma
MDA-MB-435 = system: MDA-MB-435
PC-3 prostate = system: PC-3 prostate
RPMI-8226 leukemia = system: RPMI-8226 leukemia
NCI-H460 lung = system: NCI-H460 lung
SF-268 CNS = system: SF-268 CNS
RXF 393 renal = system: RXF 393 renal
HL-60(TB) leukemia = system: HL-60(TB) leukemia
K-562 leukemia = system: K-562 leukemia
HOP-62 NSCLC = system: HOP-62 NSCLC
HOP-92 NSCLC = system: HOP-92 NSCLC
CCRF-CEM leukemia = system: CCRF-CEM leukemia
OVCAR-3 ovarian = system: OVCAR-3 ovarian
U251 CNS = system: U251 CNS
OVCAR-4 ovarian = system: OVCAR-4 ovarian
OVCAR-5 ovarian = system: OVCAR-5 ovarian
COLO 205 colon = system: COLO 205 colon
SK-MEL-2 melanoma = system: SK-MEL-2 melanoma
DU-145 prostate = system: DU-145 prostate
SF-539 CNS = system: SF-539 CNS
A549 NSCLC = system: A549 NSCLC

Compound: CCCn1cnc2c(c1=N)C(c1ccc(OC)cc1)c1sc3c(CC)cccc3c1O2 (stereo not given)
- GI50 (M14 melanoma): 389 nM
- TGI (M14 melanoma): 6.18 µM
- GI50 (TK-10 renal): 5.13 µM
- TGI (TK-10 renal): 32.4 µM
- GI50 (ACHN renal): 725 nM
- TGI (ACHN renal): 17.7 µM
- GI50 (EKVX NSCLC): 941 nM
- TGI (EKVX NSCLC): 20 µM
- GI50 (T-47D breast): 518 nM
- TGI (T-47D breast): > 49.2 µM
- GI50 (SR leukemia): 319 nM
- TGI (SR leukemia): 3.23 µM
- GI50 (SN12C renal): 867 nM
- TGI (SN12C renal): 7.6 µM
- GI50 (KM12 colon): 445 nM
- TGI (KM12 colon): 24.9 µM
- GI50 (NCI-H226 lung): 964 nM
- TGI (NCI-H226 lung): 11.2 µM
- GI50 (SNB-19 CNS): 478 nM
- TGI (SNB-19 CNS): 14.6 µM
- GI50 (NCI/ADR-RES ovarian): 389 nM
- TGI (NCI/ADR-RES ovarian): 10 µM
- GI50 (HS 578T breast): 384 nM
- TGI (HS 578T breast): 5.76 µM
- GI50 (SK-OV-3 ovarian): 818 nM
- TGI (SK-OV-3 ovarian): 26.9 µM
- GI50 (NCI-H522 lung): 346 nM
- TGI (NCI-H522 lung): 4.94 µM
- GI50 (HCT-116 colon): 382 nM
- TGI (HCT-116 colon): 4.77 µM
- GI50 (BT-549 breast): 691 nM
- TGI (BT-549 breast): 16 µM
- GI50 (OVCAR-8 ovarian): 1010 nM
- TGI (OVCAR-8 ovarian): 15.8 µM
- GI50 (UACC-257 melanoma): 15 µM
- TGI (UACC-257 melanoma): > 100 µM
- GI50 (SNB-75 CNS): 220 nM
- TGI (SNB-75 CNS): 1090 nM
- GI50 (MOLT-4 leukemia): 505 nM
- TGI (MOLT-4 leukemia): 5.78 µM
- GI50 (IGROV1 ovarian): 612 nM
- TGI (IGROV1 ovarian): 29.4 µM
- GI50 (LOX IMVI melanoma): 685 nM
- TGI (LOX IMVI melanoma): 5.43 µM
- GI50 (SK-MEL-28 melanoma): 2140 nM
- TGI (SK-MEL-28 melanoma): 36.7 µM
- GI50 (MALME-3M melanoma): 726 nM
- TGI (MALME-3M melanoma): 21.7 µM
- GI50 (MCF7 breast): 345 nM
- TGI (MCF7 breast): 11.6 µM
- GI50 (UO-31 renal): 714 nM
- TGI (UO-31 renal): 29.9 µM
- GI50 (HT29 colon): 512 nM
- TGI (HT29 colon): 9.09 µM
- GI50 (CAKI-1 renal): 476 nM
- TGI (CAKI-1 renal): 20.6 µM
- GI50 (A498 renal): 334 nM
- TGI (A498 renal): 1410 nM
- GI50 (HCC-2998 colon): 1300 nM
- TGI (HCC-2998 colon): 6.6 µM
- GI50 (HCT-15 colon): 441 nM
- TGI (HCT-15 colon): 6.21 µM
- GI50 (786-0 renal): 534 nM
- TGI (786-0 renal): 12.8 µM
- GI50 (NCI-H23 lung): 1270 nM
- TGI (NCI-H23 lung): 18.1 µM
- GI50 (UACC-62 melanoma): 422 nM
- TGI (UACC-62 melanoma): 19.1 µM
- GI50 (SF-295 CNS): 392 nM
- TGI (SF-295 CNS): 7.24 µM
- GI50 (SW-620 colon): 515 nM
- TGI (SW-620 colon): 14.8 µM
- GI50 (MDA-MB-231 breast): 1360 nM
- TGI (MDA-MB-231 breast): 13 µM
- GI50 (SK-MEL-5 melanoma): 578 nM
- TGI (SK-MEL-5 melanoma): 7.28 µM
- GI50 (MDA-MB-435): 196 nM
- TGI (MDA-MB-435): 479 nM
- GI50 (PC-3 prostate): 551 nM
- TGI (PC-3 prostate): 16.9 µM
- GI50 (RPMI-8226 leukemia): 375 nM
- TGI (RPMI-8226 leukemia): 2560 nM
- GI50 (NCI-H460 lung): 378 nM
- TGI (NCI-H460 lung): 4.45 µM
- GI50 (SF-268 CNS): 702 nM
- TGI (SF-268 CNS): 26.1 µM
- GI50 (RXF 393 renal): 272 nM
- TGI (RXF 393 renal): 883 nM
- GI50 (HL-60(TB) leukemia): 279 nM
- TGI (HL-60(TB) leukemia): 1030 nM
- GI50 (K-562 leukemia): 338 nM
- TGI (K-562 leukemia): > 31.6 µM
- GI50 (HOP-62 NSCLC): 553 nM
- TGI (HOP-62 NSCLC): 14.8 µM
- GI50 (HOP-92 NSCLC): 1190 nM
- TGI (HOP-92 NSCLC): 11.2 µM
- GI50 (CCRF-CEM leukemia): 421 nM
- GI50 (OVCAR-3 ovarian): 378 nM
- TGI (OVCAR-3 ovarian): 2970 nM
- GI50 (U251 CNS): 438 nM
- TGI (U251 CNS): 12.5 µM
- GI50 (OVCAR-4 ovarian): 1350 nM
- TGI (OVCAR-4 ovarian): 23.5 µM
- GI50 (OVCAR-5 ovarian): 2590 nM
- TGI (OVCAR-5 ovarian): 17.9 µM
- GI50 (COLO 205 colon): 844 nM
- TGI (COLO 205 colon): 8.27 µM
- GI50 (SK-MEL-2 melanoma): 608 nM
- TGI (SK-MEL-2 melanoma): 14.7 µM
- GI50 (DU-145 prostate): 665 nM
- TGI (DU-145 prostate): 13.7 µM
- GI50 (SF-539 CNS): 334 nM
- TGI (SF-539 CNS): 1400 nM
- GI50 (A549 NSCLC): 827 nM
- TGI (A549 NSCLC): 20.9 µM
